Experimental data reported in ChEMBL document CHEMBL4834472 (J Med Chem, 2021).
Calls of active or inactive are those of the source. No cut-off for these calls is given here.

Assays:
CDK2/Cyclin A1 = CDK2/Cyclin A1 (Homo sapiens, UniProt P24941); assay type: protein-complex assay
Description: Inhibition of CDK2/Cyclin A1 (unknown origin) at 1 uM using histone H1 as substrate preincubated for 20 mins followed by 33P-ATP addition and measured after 2 hrs by filter binding method

[1] = biological target: Receptor-type tyrosine-protein kinase FLT3 (Homo sapiens, UniProt P36888, ITD)
[2] = biological target: Cyclin-dependent kinase 1/cyclin B1 (Homo sapiens, UniProt P06493); assay: Inhibition of CDK1/cyclin B1 (unknown origin) in presence of [32P]gammaATP by image analyser; assay type: protein-complex assay
Sequence of Cyclin-dependent kinase 1/cyclin B1 (P06493 whole entry): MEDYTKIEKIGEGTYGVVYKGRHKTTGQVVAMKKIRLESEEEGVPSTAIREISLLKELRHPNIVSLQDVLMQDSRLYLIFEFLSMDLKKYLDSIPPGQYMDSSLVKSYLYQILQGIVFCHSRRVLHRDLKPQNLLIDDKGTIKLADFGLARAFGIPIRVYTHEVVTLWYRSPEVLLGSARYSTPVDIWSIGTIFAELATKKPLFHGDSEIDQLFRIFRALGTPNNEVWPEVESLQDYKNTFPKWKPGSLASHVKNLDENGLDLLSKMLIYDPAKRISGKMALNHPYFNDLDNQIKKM
Sequence of Cyclin-dependent kinase 1/cyclin B1 (P14635 whole entry, further chain): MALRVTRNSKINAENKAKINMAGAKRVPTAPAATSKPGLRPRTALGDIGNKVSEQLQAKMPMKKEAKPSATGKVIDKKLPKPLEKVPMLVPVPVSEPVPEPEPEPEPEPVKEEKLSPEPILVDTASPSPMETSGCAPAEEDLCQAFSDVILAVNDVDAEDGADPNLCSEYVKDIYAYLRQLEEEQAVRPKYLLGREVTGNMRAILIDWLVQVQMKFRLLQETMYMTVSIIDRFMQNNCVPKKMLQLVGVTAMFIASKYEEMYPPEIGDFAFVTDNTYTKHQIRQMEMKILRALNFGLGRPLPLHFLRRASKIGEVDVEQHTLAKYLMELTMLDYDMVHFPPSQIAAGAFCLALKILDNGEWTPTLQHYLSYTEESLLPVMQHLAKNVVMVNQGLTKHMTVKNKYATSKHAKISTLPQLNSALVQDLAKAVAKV

[3] = biological target: Cyclin-dependent kinase 2/cyclin E1 (Homo sapiens, UniProt P24941); assay: Inhibition of CDK2/cyclin E1 (unknown origin) in presence of [32P]gammaATP by image analyser; assay type: protein-complex assay
CDK2/Cyclin A2 = CDK2/Cyclin A2 (Homo sapiens, UniProt P24941); assay: Inhibition of CDK2/cyclin A2 (unknown origin) in presence of [32P]gammaATP by image analyser; assay type: protein-complex assay
[4] = biological target: Cyclin-dependent kinase 4/cyclin D1 (Homo sapiens, UniProt P11802); assay: Inhibition of CDK4/cyclin D1 (unknown origin) in presence of [32P]gammaATP by image analyser; assay type: protein-complex assay
Sequence of Cyclin-dependent kinase 4/cyclin D1 (P11802 whole entry): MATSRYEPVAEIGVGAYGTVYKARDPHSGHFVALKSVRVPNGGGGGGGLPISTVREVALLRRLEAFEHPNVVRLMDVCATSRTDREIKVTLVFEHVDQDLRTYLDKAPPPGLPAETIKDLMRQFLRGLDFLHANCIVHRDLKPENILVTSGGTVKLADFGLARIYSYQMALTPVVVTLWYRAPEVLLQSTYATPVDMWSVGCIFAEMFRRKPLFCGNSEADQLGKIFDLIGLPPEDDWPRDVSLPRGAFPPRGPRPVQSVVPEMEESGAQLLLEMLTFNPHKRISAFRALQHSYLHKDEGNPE
Sequence of Cyclin-dependent kinase 4/cyclin D1 (P24385 whole entry, further chain): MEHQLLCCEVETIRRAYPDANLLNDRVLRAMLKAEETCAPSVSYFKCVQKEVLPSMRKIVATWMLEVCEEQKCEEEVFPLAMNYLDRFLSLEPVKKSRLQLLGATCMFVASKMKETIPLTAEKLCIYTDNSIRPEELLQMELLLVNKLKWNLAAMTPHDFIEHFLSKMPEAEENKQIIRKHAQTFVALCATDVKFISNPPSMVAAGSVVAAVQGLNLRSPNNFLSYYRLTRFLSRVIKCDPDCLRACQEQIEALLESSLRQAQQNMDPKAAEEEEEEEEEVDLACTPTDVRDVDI

CDK9/cyclin T1 = CDK9/cyclin T1 (Homo sapiens, UniProt P50750); assay: Inhibition of CDK9/cyclin T1 (unknown origin) in presence of [32P]gammaATP by image analyser; assay type: protein-complex assay
Sequence of CDK9/cyclin T1 (O60563 whole entry): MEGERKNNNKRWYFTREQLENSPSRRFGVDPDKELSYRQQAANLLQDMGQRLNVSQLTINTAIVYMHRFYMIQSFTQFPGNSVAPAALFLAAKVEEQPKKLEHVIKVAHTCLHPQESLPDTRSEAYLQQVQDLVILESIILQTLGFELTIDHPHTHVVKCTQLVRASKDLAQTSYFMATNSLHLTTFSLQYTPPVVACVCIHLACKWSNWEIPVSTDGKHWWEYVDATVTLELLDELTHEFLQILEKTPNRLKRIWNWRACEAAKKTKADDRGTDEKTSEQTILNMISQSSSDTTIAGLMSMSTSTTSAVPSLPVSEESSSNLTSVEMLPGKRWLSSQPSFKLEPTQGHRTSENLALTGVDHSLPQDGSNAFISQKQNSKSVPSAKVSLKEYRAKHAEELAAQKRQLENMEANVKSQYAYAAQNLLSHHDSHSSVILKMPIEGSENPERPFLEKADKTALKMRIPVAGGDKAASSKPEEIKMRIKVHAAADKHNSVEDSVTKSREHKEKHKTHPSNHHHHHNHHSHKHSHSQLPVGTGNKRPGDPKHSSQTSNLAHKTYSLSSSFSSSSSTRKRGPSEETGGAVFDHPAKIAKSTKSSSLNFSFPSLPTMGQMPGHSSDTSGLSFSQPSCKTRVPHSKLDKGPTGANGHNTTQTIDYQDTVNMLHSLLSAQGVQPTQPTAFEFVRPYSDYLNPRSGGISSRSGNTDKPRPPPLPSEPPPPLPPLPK
Sequence of CDK9/cyclin T1 (P50750 whole entry): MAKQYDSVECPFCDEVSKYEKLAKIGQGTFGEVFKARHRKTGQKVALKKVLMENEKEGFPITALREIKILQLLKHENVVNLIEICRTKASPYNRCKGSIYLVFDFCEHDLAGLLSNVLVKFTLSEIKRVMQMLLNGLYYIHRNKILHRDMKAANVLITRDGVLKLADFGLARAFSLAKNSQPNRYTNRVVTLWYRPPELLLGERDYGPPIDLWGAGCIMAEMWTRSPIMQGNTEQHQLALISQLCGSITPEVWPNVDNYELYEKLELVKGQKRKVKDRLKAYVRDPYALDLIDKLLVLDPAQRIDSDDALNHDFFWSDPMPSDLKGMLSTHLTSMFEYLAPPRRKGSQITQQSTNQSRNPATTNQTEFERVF

[5] = biological target: T1, Receptor-type tyrosine-protein kinase FLT3 (Homo sapiens, UniProt P36888); assay: Inhibition of wild type FLT3 (unknown origin) using AGLT peptide substrate in presence of [32P]gammaATP by image analyser
T1 sequence (P36888 whole entry): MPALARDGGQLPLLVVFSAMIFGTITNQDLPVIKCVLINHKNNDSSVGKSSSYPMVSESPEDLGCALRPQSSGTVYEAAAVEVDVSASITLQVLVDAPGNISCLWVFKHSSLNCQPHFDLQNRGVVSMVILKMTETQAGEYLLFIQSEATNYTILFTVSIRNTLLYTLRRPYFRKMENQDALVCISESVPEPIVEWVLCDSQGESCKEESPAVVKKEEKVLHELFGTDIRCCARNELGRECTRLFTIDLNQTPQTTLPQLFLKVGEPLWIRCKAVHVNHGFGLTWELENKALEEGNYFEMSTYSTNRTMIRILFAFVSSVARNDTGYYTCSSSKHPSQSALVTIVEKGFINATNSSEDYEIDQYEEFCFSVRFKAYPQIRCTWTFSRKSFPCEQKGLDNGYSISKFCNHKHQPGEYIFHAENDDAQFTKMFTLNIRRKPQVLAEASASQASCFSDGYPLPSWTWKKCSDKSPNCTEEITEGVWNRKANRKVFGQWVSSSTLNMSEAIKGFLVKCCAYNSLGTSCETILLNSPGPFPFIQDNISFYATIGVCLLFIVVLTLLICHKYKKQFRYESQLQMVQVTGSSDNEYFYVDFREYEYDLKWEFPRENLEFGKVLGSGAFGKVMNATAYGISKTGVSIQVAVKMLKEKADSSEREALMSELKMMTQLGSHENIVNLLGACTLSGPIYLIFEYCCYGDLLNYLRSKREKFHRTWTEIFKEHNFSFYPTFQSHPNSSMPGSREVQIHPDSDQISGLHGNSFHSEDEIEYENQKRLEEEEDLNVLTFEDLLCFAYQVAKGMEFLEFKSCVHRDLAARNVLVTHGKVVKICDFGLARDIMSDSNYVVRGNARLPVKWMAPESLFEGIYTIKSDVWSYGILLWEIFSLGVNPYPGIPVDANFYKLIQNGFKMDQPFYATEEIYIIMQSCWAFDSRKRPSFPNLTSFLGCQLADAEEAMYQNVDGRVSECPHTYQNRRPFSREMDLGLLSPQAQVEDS

MOLM-13 = assay: Antiproliferative activity against human MOLM-13 cells assessed as cell death measured after 72 hrs by resazurin dye based assay; assay type: functional; conditions: MOLM-13, 72 h
MOLM-14 [6] = assay: Antiproliferative activity against human MOLM-14 cells assessed as cell death measured after 72 hrs by resazurin dye based assay; assay type: functional; conditions: MOLM-14, 72 h
MOLM-14 [7] = assay: Antiproliferative activity against human MOLM-14 cells harboring D835Y mutant assessed as cell death measured after 72 hrs by resazurin dye based assay; assay type: functional; conditions: MOLM-14, 72 h
MOLM-14 [8] = assay: Antiproliferative activity against human MOLM-14 cells harboring F691L mutant assessed as cell death measured after 72 hrs by resazurin dye based assay; assay type: functional; conditions: MOLM-14, 72 h
SEM cells = assay: Antiproliferative activity against human SEM cells assessed as cell death measured after 72 hrs by resazurin dye based assay; assay type: functional
CCRF-CEM = assay: Antiproliferative activity against human CCRF-CEM cells assessed as cell death measured after 72 hrs by resazurin dye based assay; assay type: functional
THP-1 = assay: Antiproliferative activity against human THP-1 cells assessed as cell death measured after 72 hrs by resazurin dye based assay; assay type: functional; conditions: THP-1, 72 h
U-937 = assay: Antiproliferative activity against human U-937 cells assessed as cell death measured after 72 hrs by resazurin dye based assay; assay type: functional; conditions: U-937, 72 h
BaF3 [9] = assay: Antiproliferative activity against mouse BaF3 cells assessed as cell death measured after 72 hrs by resazurin dye based assay; assay type: functional; conditions: BaF3, 72 h
BaF3 [10] = assay: Antiproliferative activity against mouse BaF3 cells harboring FLt3 ITD mutant assessed as cell death measured after 72 hrs by resazurin dye based assay; assay type: functional; conditions: BaF3, 72 h
[11] = biological target: Receptor-type tyrosine-protein kinase FLT3 (Homo sapiens) (UniProt P36888); assay: Inhibition of FLT3 autophosphorylation in human MV4-11 cells at 20 to 100 nM incubated for 1 hrs by Western blot analysis; assay type: cell-based; conditions: dose 20-100 nM
[12] = biological target: Receptor-type tyrosine-protein kinase FLT3 (Homo sapiens) (UniProt P36888); assay: Inhibition of FLT3 in human MV4-11 cells assessed as STAT5 phosphorylation at Y694 at 20 to 100 nM incubated for 1 hrs by Western blot analysis; assay type: cell-based; conditions: dose 20-100 nM
[13] = biological target: Receptor-type tyrosine-protein kinase FLT3 (Homo sapiens) (UniProt P36888); assay: Inhibition of FLT3 in human MV4-11 cells assessed as ERK1/2 phosphorylation at 20 to 100 nM incubated for 1 hrs by Western blot analysis; assay type: cell-based; conditions: dose 20-100 nM
MV4-11 [14] = assay: Induction of apoptosis in human MV4-11 cells assessed as caspase 3 activation using fluorescent substrate Ac-DEVD-AMC at 100 nM incubated for 24 hrs by Western blot analysis; assay type: functional, cell-based
MV4-11 [15] = assay: Induction of apoptosis in human MV4-11 cells assessed as caspase 7 activation using fluorescent substrate Ac-DEVD-AMC at 100 nM incubated for 24 hrs by Western blot analysis; assay type: functional, cell-based
MV4-11 [16] = assay: Induction of apoptosis in human MV4-11 cells assessed as increase in cleaved PARP1 level at 100 nM incubated for 24 hrs by Western blot analysis; assay type: functional, cell-based
MV4-11 [17] = assay: Induction of apoptosis in human MV4-11 cells assessed as decrease in MCL1 level at 100 nM incubated for 24 hrs by Western blot analysis; assay type: functional, cell-based
MV4-11 [18] = assay: Induction of apoptosis in human MV4-11 cells assessed as effect on Bcl2 level at 100 nM incubated for 24 hrs by Western blot analysis; assay type: functional, cell-based
K562 = assay: cells; conditions: Homo sapiens, K562, 72 h
Description: Antiproliferative activity against human K562 cells assessed as cell death measured after 72 hrs by resazurin dye based assay

MV4-11 [19] = assay: cells; conditions: Homo sapiens, MV4-11, 72 h
Description: Antiproliferative activity against human MV4-11 cells assessed as cell death measured after 72 hrs by resazurin dye based assay

[20] = tested on: Receptor-type tyrosine-protein kinase FLT3 (Homo sapiens), P36888 [D835Y]; assay: Inhibition of FLT3 D835Y (unknown origin) assessed as residual activity at 500 nM
[21] = tested on: Receptor-type tyrosine-protein kinase FLT3 (Homo sapiens), P36888 [UNDEFINED MUTATION]; assay: Inhibition of FLT3 ITD (unknown origin) assessed as residual activity at 500 nM
[22] = biological target: Leucine-rich repeat serine/threonine-protein kinase 2 (Homo sapiens) (UniProt Q5S007); assay: Inhibition of LRRK2 (unknown origin) assessed as residual activity at 500 nM
[23] = biological target: Maternal embryonic leucine zipper kinase (Homo sapiens) (UniProt Q14680); assay: Inhibition of MELK (unknown origin) assessed as residual activity at 500 nM
[24] = biological target: Dual specificity tyrosine-phosphorylation-regulated kinase 1B (Homo sapiens) (UniProt Q9Y463); assay: Inhibition of DYRK1B (unknown origin) assessed as residual activity at 500 nM
Sequence of Dual specificity tyrosine-phosphorylation-regulated kinase 1B (Homo sapiens) (Q9Y463 whole entry, looked up): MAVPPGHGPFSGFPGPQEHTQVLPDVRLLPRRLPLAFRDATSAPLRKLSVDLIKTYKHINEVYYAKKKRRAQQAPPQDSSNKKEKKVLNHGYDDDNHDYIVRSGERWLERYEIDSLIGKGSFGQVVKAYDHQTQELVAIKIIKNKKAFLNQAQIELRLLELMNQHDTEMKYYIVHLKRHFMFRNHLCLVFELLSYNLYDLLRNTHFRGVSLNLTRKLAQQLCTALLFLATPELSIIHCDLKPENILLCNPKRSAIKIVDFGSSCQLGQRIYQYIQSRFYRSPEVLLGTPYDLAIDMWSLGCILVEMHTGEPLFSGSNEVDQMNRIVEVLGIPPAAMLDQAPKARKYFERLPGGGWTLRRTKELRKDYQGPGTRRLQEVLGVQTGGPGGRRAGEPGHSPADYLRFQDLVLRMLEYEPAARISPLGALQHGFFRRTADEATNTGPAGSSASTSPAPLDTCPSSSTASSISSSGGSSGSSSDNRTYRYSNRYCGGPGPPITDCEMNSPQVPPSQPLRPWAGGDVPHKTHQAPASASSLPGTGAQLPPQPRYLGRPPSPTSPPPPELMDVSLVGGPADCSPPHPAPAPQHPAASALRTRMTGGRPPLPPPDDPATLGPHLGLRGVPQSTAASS

[25] = biological target: Dual specificity protein kinase CLK1 (Homo sapiens) (UniProt P49759); assay: Inhibition of CLK1 (unknown origin) assessed as residual activity at 500 nM
[26] = biological target: NT-3 growth factor receptor (Homo sapiens) (UniProt Q16288); assay: Inhibition of TRKC (unknown origin) assessed as residual activity at 500 nM
Sequence of NT-3 growth factor receptor (Homo sapiens) (Q16288 32-839 limits assumed): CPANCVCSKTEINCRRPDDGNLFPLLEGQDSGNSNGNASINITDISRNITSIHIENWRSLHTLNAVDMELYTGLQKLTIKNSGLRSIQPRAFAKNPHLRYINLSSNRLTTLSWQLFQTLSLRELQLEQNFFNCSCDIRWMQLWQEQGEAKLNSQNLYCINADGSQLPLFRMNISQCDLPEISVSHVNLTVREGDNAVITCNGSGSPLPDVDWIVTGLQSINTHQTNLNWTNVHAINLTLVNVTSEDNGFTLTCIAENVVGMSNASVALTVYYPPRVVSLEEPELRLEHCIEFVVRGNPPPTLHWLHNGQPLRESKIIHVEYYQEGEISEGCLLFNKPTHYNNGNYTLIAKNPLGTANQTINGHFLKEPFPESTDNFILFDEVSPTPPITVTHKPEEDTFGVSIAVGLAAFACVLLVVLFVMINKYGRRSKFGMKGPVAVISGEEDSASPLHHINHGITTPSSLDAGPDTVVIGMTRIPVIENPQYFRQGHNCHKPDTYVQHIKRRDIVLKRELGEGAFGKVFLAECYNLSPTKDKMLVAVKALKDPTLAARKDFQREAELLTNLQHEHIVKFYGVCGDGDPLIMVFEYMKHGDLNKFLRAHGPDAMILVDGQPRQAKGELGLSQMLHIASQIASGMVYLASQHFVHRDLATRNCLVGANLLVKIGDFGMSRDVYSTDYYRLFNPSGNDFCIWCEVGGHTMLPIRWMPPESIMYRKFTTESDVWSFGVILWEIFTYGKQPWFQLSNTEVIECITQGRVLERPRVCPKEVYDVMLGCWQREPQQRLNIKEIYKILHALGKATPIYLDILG

[27] = biological target: MAP kinase-interacting serine/threonine-protein kinase 2 (Homo sapiens) (UniProt Q9HBH9); assay: Inhibition of MNK2 (unknown origin) assessed as residual activity at 500 nM
Sequence of MAP kinase-interacting serine/threonine-protein kinase 2 (Homo sapiens) (Q9HBH9 whole entry, looked up): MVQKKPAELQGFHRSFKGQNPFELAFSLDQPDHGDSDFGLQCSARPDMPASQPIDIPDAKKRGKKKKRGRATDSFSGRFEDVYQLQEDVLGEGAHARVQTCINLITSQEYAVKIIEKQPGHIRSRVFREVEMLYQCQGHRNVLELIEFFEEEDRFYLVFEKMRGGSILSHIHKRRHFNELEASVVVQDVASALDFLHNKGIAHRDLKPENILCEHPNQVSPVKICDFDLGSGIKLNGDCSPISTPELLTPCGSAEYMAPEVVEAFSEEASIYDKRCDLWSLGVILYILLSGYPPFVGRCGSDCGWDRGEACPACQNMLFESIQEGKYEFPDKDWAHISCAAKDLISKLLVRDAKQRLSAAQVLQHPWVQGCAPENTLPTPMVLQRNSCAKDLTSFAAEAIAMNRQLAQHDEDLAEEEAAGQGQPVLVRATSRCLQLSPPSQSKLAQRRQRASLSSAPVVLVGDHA

[28] = biological target: Lymphokine-activated killer T-cell-originated protein kinase (Homo sapiens) (UniProt Q96KB5); assay: Inhibition of TOPK (unknown origin) assessed as residual activity at 500 nM
[29] = biological target: Rho-associated protein kinase 2 (Homo sapiens) (UniProt O75116); assay: Inhibition of ROCK2 (unknown origin) assessed as residual activity at 500 nM
[30] = biological target: Ribosomal protein S6 kinase alpha-4 (Homo sapiens) (UniProt O75676); assay: Inhibition of MSK2 (unknown origin) assessed as residual activity at 500 nM
[31] = biological target: Ribosomal protein S6 kinase beta-1 (Homo sapiens) (UniProt P23443); assay: Inhibition of p70S6K (unknown origin) assessed as residual activity at 500 nM
[32] = biological target: cGMP-dependent protein kinase 1 (Homo sapiens) (UniProt Q13976); assay: Inhibition of PKG1alpha (unknown origin) assessed as residual activity at 500 nM
Sequence of cGMP-dependent protein kinase 1 (Homo sapiens) (Q13976 whole entry): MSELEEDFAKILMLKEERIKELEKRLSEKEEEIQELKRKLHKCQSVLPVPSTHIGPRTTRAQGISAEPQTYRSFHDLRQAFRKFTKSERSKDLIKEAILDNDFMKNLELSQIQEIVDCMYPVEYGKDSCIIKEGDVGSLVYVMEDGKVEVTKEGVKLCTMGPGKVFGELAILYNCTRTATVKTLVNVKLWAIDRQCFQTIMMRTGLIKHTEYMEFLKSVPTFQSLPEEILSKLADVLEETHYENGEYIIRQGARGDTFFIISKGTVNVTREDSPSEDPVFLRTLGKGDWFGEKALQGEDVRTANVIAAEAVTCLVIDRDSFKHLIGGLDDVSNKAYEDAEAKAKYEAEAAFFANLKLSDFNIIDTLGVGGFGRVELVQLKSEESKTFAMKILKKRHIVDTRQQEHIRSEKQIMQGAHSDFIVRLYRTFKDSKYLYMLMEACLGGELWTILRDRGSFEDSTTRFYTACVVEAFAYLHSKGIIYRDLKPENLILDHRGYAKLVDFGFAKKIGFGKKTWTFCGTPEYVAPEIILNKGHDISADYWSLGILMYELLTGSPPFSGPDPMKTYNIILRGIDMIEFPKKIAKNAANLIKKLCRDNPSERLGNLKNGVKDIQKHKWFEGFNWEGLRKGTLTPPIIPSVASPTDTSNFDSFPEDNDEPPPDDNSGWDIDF

[33] = biological target: CDK2/Cyclin A1 (Homo sapiens) (UniProt P24941+P78396); assay: Inhibition of CDK2/cyclin A1 (unknown origin) assessed as residual activity at 500 nM; assay type: protein-complex assay

| Compound | IC50 (CDK2/Cyclin A1) | IC50 [1] | IC50 [2] | IC50 [3] | IC50 (CDK2/Cyclin A2) | IC50 [4] | IC50 (CDK9/cyclin T1) | IC50 [5] | IC50 (MOLM-13) | IC50 (MOLM-14 [6]) | IC50 (MOLM-14 [7]) | IC50 (MOLM-14 [8]) | IC50 (SEM cells) | IC50 (CCRF-CEM) | IC50 (THP-1) | IC50 (U-937) | IC50 (BaF3 [9]) | IC50 (BaF3 [10]) | IC50 (K562) | IC50 (MV4-11 [19]) | also measured |
| --- | --- | --- | --- | --- | --- | --- | --- | --- | --- | --- | --- | --- | --- | --- | --- | --- | --- | --- | --- | --- | --- |
| Fc1cc2[nH]ncc2c2c3c(c(-c4c[nH]nc4C(F)(F)F)nc12)CCCC3 | 0.039 µM | 0.012 µM | 0.052 µM | 0.033 µM | 0.039 µM | > 1 µM | 0.538 µM | 0.031 µM | 0.006 µM | 0.028 µM | 0.017 µM | 0.042 µM | 0.18 µM | 3.74 µM | 3.46 µM | 2.24 µM | 3.88 µM | 0.042 µM | 7.23 µM | 0.007 µM | inhibition [11]: Active; inhibition [12]: Active; inhibition [13]: inactive; Activity (MV4-11 [14]): Active; Activity (MV4-11 [15]): Active; Activity (MV4-11 [16]): Active; Activity (MV4-11 [17]): Active; Activity (MV4-11 [18]): Active |
| FC(F)(F)c1n[nH]cc1-c1nc2ccc3[nH]ncc3c2c2c1CCCC2 | 0.039 µM |  |  |  |  |  |  |  |  |  |  |  |  |  |  |  |  |  | 8.59 µM | 0.071 µM | Activity [20]: < 2.5%; Activity [21]: < 2.5%; Activity [22]: 4%; Activity [23]: 4%; Activity [24]: 4%; Activity [25]: 4%; Activity [26]: 4%; Activity [27]: < 25%; Activity [28]: < 25%; Activity [29]: < 25%; Activity [30]: < 25%; Activity [31]: < 25%; Activity [32]: < 25%; Activity [33]: < 25% |
| Cc1n[nH]c2cc(F)c3nc(-c4c[nH]nc4C(F)(F)F)c4c(c3c12)CCCC4 | 0.158 µM | 0.001 µM | 0.14 µM | 0.182 µM | 0.158 µM | > 1 µM | > 1 µM | 0.007 µM | 0.007 µM | 0.014 µM | 0.007 µM | 0.048 µM | 0.111 µM | 5.73 µM | 2.85 µM | 2.58 µM | 5.98 µM | 0.016 µM | 9.2 µM | 0.02 µM | inhibition [11]: Active; inhibition [12]: Active; inhibition [13]: inactive; Activity (MV4-11 [14]): Active; Activity (MV4-11 [15]): Active; Activity (MV4-11 [16]): Active; Activity (MV4-11 [17]): Active; Activity (MV4-11 [18]): Active |
